For this assay, the system named is CEM cells HIV-1 protection, formazan growth assay. Description: NCI AIDS Antiviral Assay. As to conditions: for IC50: measured here: growth of uninfected CEM cells. An outline of the steps: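 Soluble formazan readout of cell growth; CEM cells ± HIV-1; 5 drug concs. ≥50% protection → retest; ≥50% again = moderately active; reproducible 100% = confirmed active.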

“And” between values parts separate entries of the source, which are not always exact repeats. Equal entries are not always repeated. The source made the active and inactive calls.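 The calls were made as follows: active = compounds giving half or more protection of infected cells from virus-caused growth loss, again on retest; inactive = the rest.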 Where a SMILES comes first, the peptide text is derived from it. [ ]: non-standard residue; d: D form. The star is where a group is joined. ξ: configuration not given here. ξPhe(4-NO2) = NC(Cc1ccc([N+](=O)[O-])cc1)C(=O)O; Boc = CC(C)(C)OC(=O)*; OBn = c1ccc(CO*)cc1

In the case of `CC(C)(C)OC(=O)NC(Cc1ccc([N+](=O)[O-])cc1)C(=O)NCC(=O)OCc1ccccc1` (stereo not drawn) (Boc-[ξPhe(4-NO2)]-Gly-OBn), the EC50 (commonly the concentration that produces a half-maximal response) is greater than 200 µM and the IC50 – broadly, the concentration that gives 50% inhibition – was 33.1 µM.

`COC(=O)c1ccccc1C1CN=NC12Cc1c(C)ccc(C)c1C2=O` (stereo not drawn): the EC50 is greater than 200 µM and the IC50 was found to be 155 µM. Turning to `C=CC1CC[N-]CC1.[Cl][Cu][Cl]`, the result was inactive. In the case of `COc1ccc2nc3cc(Cl)ccc3c(Sc3ccccc3[N+](=O)[O-])c2c1`, the EC50 was greater than 9.55 µM and the IC50 was greater than 9.55 µM. Regarding `CN(C)CCCOC(=O)C(c1ccccc1)C1(O)CCSCC1` (stereo not drawn), the EC50 is greater than 200 µM and the IC50 is greater than 200 µM. Turning to `Cc1ccc(C(=O)Nc2ccccc2)cc1N=NN(C)C`, the EC50 was greater than 331 µM and the IC50 is 288 µM. The corresponding values for `COc1ccc(C(C(N)=O)N2CCOCC2)cc1` (stereo not drawn) are 129 µM and greater than 200 µM. The corresponding values for `COc1cc(C2c3cc4c(cc3OC3(O)COC(=O)C23)OCO4)cc(OC)c1OC` (stereo not drawn) are greater than 200 µM and 105 µM.

Take `CN1C(=O)/C(=C2\SC(=O)N(CN3CCOCC3)C2=O)c2ccccc21`: the EC50 is greater than 200 µM and the IC50 amounted to 37.2 µM. The corresponding values for `CC12C3CC4C5CC(C(C53)[C@@H]1NCc1ccccc1)C42` (stereo partly drawn) are greater than 437 µM and 77.6 µM. As to `CCSC1=[N+](SCC)CCCS1`, the EC50 was greater than 708 µM and the IC50 came out at 269 µM. The corresponding values for `O=C1COc2cccnc2N1CCCCO` are greater than 200 µM and greater than 200 µM. For `C1=CC2=CC=CC3c4nc5ccc6ccccc6c5nc4C(=C1)C23` (stereo not drawn), the EC50 was greater than 200 µM and the IC50 was greater than 200 µM. With `O=C(NCCc1ccccc1)c1cc2ccc(O)c(O)c2cn1`, the EC50 was greater than 145 µM; the IC50 was 4.37 µM and 2.04 µM.

As for `CCN(CC)CC1CCCCN1CC(=O)N1c2ccc(Br)cc2C(=O)Nc2cccnc21` (stereo not drawn), the EC50 is greater than 200 µM and the concentration for half-maximal inhibition (IC50) is greater than 200 µM. Turning to `OCC1NC(COC2OC(CO)C(O)C(O)C2O)C(O)C(O)C1O` (stereo not drawn), the result was inactive. Molecule `CCCC(=O)OCc1cc(=O)n(C)c2c3c4c(cc12)c(C)cc(=O)n4CO3` showed an EC50 greater than 174 µM and an IC50 of 6.76 µM.

For `CCN(CCNc1ccc(C)c2sc3ccccc3c(=O)c12)CC(C)(C)O`, the EC50 is greater than 200 µM and the IC50 was determined as 7.94 µM. On the same counts, the results for `CC(=O)Nc1ncc(Sc2ccccc2C(=O)O)s1` are greater than 200 µM and greater than 200 µM. On the same counts, the results for `Cc1cccc(N2CC3CC4C=CC3(C2)O4)c1` (stereo not drawn) are greater than 200 µM and greater than 200 µM.

`CO/C=C/C=C(\C#N)C(=O)OC`: the EC50 was 174 µM and the 50% inhibitory concentration (IC50) is greater than 200 µM. In the case of `N#Cc1ccc(NC(=NCC(=O)O)Nc2ccc3ccccc3c2)cc1`, the outcome was inactive. For the molecule `C[C@@H](NC(=O)c1ccccc1SC(=O)OCCBr)C(N)=O`, the EC50 is 4.57 µM and the half-maximal inhibitory concentration (IC50) is greater than 200 µM.

With `COC1/C=C/O[C@@]2(C)Oc3c(C)c(O)c4c(O)c(cc(O)c4c3C2=O)NC(=O)/C(C)=C\C=C\[C@H](C)C(O)[C@@H](C)[C@@H](O)[C@@H](C)[C@H](OC(C)=O)[C@@H]1C` (stereo partly drawn), the EC50 is greater than 174 µM and the half-inhibitory concentration (IC50) turned out to be 8.13 µM. On the same counts, the results for `CCOC(=O)/C(=C\c1ccc(N(CCC#N)CCC#N)cc1)NC(=O)c1cc([N+](=O)[O-])ccc1Cl` are greater than 10.5 µM and greater than 10.5 µM. The corresponding values for `Cc1cc(C)cc(OCC2CNC(=O)O2)c1` (stereo not drawn) are greater than 200 µM and greater than 200 µM. On the same counts, the results for `N#Cc1c(-c2ccccc2)nc(-c2ccccc2)sc1=S` are greater than 100 µM and greater than 100 µM. On to `CCOC(=O)c1ccc(CS(=O)(=O)c2ccc(OC)cc2)cc1`, for which the EC50 was greater than 56.2 µM and the IC50 was greater than 56.2 µM.

With `CCCc1cc(=O)oc2c3c(c4c(c12)OC(C)(C)[C@H](OC(=O)c1ccc(Br)cc1)[C@@H]4OC(=O)c1ccc(Br)cc1)O[C@@H](C)[C@H](C)[C@@H]3OC(=O)c1ccc(Br)cc1`, the EC50 was greater than 200 µM and the IC50 was greater than 200 µM.

For the molecule `O=c1cc(NNc2ccccc2)[nH]c(=O)[nH]1`, the EC50 was greater than 200 µM and the IC50 turned out to be 1.02 µM.

As for `CNC(=O)C1CCC(=O)N1CN(C(C)=O)c1ccccc1` (stereo not drawn), the EC50 is greater than 200 µM and the half-inhibitory concentration (IC50) is greater than 200 µM.

As to `CC(C)[Si]1(C(C)C)OCC2OC(n3cnc4c(N)ncnc43)C(N)C2O[Si](C(C)C)(C(C)C)O1` (stereo not drawn), the EC50 is greater than 200 µM and the IC50 is 8.51 µM. The corresponding values for `OCC1NCC(O)C(O)C1O` (stereo not drawn) are greater than 200 µM and greater than 200 µM. Turning to `Clc1cccc(-c2sc(-c3cccs3)cc2Cc2cccs2)c1`, the EC50 is greater than 200 µM and the half-maximal inhibitory concentration (IC50) was found to be 141 µM.

With `O=C(O)CP(=S)(S)c1ccccc1` (stereo not drawn), the EC50 was greater than 5620 µM and the IC50 was greater than 5620 µM.

With `Cc1ccc(S(=O)(=O)NN=C2C(C)(C)CC2(C)C)cc1`, the EC50 is greater than 200 µM and the IC50 is greater than 200 µM. In the case of `Cc1cccc(C)c1N1C(=O)C(=O)C(c2nc3ccccc3s2)C(=Nc2cccc3c(=O)[nH][nH]c(=O)c23)C1=O` (stereo not drawn), the outcome was inactive. As to `CCOc1cc2c(=O)oc3c(OC)ccc4ccc(c1OC)c2c43`, the outcome was inactive. For `c1ccc(CC2COC(c3cccs3)=N2)cc1` (stereo not drawn), the EC50 is greater than 200 µM and the IC50 turned out to be 126 µM. For `CCCCC1C(=O)N2[C@H](OC[C@@H]2C(C)C)O[C@@H]1C` (stereo partly drawn), the EC50 is greater than 977 µM and the IC50 amounted to 501 µM. The corresponding values for `Cc1c(S(=O)(=O)c2ccccc2)c(N)n(Cc2ccccc2)c1C` are greater than 200 µM and 74.1 µM. For `Cc1cc(S(=O)(=O)Nc2n[nH]c(N)n2)c(SCC(=O)O)cc1Cl`, the EC50 is greater than 200 µM and the IC50 was greater than 200 µM. For `O=C1c2cccc3cccc(c23)C(=O)N1Cc1ccccc1`, the EC50 was greater than 200 µM and the half-maximal inhibitory concentration (IC50) is 61.7 µM. As for `COc1ccc(-c2csc3c2[N+]2(C)C=CC=C2C3N2CCCC2)cc1` (stereo not drawn), the EC50 was greater than 200 µM and the IC50 was 8.51 µM. The corresponding values for `C/C(CC(O)(/C=N/O)c1ccccc1)=N/O` (stereo not drawn) are greater than 200 µM and greater than 200 µM. Consider `COc1cc2oc(=O)cc(C)c2c(OC)c1OC`, for which the EC50 was greater than 200 µM and the IC50 was greater than 200 µM. As for `C=C1C2CC3CCC2C(OC(=O)c2ccccc2C(=O)O)C13` (stereo not drawn), the EC50 was greater than 200 µM and the IC50 was greater than 200 µM.

As for `CN1C(=O)C(O)C[C@@H]1c1ccccc1` (stereo partly drawn), the result was inactive.

Take `CCOC(=O)/C=C/CC(C)n1cc(C)c(=O)[nH]c1=O` (stereo not drawn): the outcome was inactive. Turning to `Cc1oc2cc(O)cc(O)c2c(=O)c1C`, the EC50 was greater than 200 µM and the IC50 was 155 µM. In the case of `CC(C)CCCC(C)C1CCC2[C@@H]3CCC4C[C@@H](CCCC(c5cc(Cl)c(O)c(C(=O)O)c5)c5cc(Cl)c(O)c(C(=O)O)c5)CC[C@]4(C)C3CC[C@]12C` (stereo partly drawn), the EC50 was 18.2 µM and the IC50 came to 309 µM. On the same counts, the results for `OC1CSc2ccccc2-n2cccc21` (stereo not drawn) are greater than 138 µM and 110 µM. Regarding `CCOC(=O)N(C)C(=C(F)F)C(F)(F)F`, the EC50 is greater than 200 µM and the IC50 was greater than 200 µM.

`CNc1ncn(-c2c(C)cccc2C)c(=O)n1`: the EC50 is greater than 200 µM and the IC50 was greater than 200 µM.

Regarding `O=C1NC(=O)N2CCSC2(Cc2ccccc2)N1` (stereo not drawn), the result was inactive.

For the molecule `CCCCCCCCCCCc1nnc(N)o1`, the outcome was inactive. As to `CCC[CH2][Sn]1([CH2]CCC)[O]CC(COc2c(Cl)cc(Cl)cc2Cl)[O]1` (stereo not drawn), the EC50 was greater than 3.98 µM and the IC50 is 1.86 µM. The corresponding values for `O=c1[nH]c2c(c(=O)[nH]1)SC(c1ccccc1)C2` (stereo not drawn) are greater than 200 µM and greater than 200 µM. The corresponding values for `Cc1c(CCl)c(=O)oc2c(C)c3occ(CCl)c(=O)c3cc12` are greater than 11.2 µM and 4.9 µM. On the same counts, the results for `O=C1NC(=O)/C(=C/c2ccc(S(=O)(=O)N/N=C/c3ccc(Cl)cc3)cc2)N1` are greater than 200 µM and 123 µM. `CCOC(=O)NC(=O)c1cn(C2CCCCC2)c(=O)n(C)c1=O`: the EC50 was greater than 81.3 µM and the IC50 is greater than 81.3 µM. Regarding `N#CS/C(Cl)=C(/C(Cl)=C(Cl)Cl)[N+](=O)[O-]`, the outcome was inactive. In the case of `C/C(O)=C(\N=O)C(=O)NCc1ccccc1`, the EC50 is greater than 1120 µM and the IC50 is greater than 1120 µM. Consider `C=C(Br)CN1CCC2(c3ccccc3)C(=O)C([Se]c3ccccc3)CCC12` (stereo not drawn), for which the EC50 was greater than 14.8 µM and the IC50 is greater than 14.8 µM. As to `Cn1c(=O)c2nncnc2n(C)c1=O`, the EC50 was greater than 200 µM and the IC50 was greater than 200 µM. Consider `CNC(=O)Oc1ccc(C(=O)OCCO)cc1`, for which the EC50 is greater than 200 µM and the IC50 stood at 95.5 µM.

`C=CC1=CC(C)C[C@]1(O)C(=O)OC` (stereo partly drawn): the EC50 is greater than 1380 µM and the IC50 worked out at 708 µM.

In the case of `COc1cc(OC)c2c(=O)cc(-c3ccncc3)oc2c1`, the outcome was inactive.

As for `Fc1c(F)c(-c2c(F)c(F)c(S)c(F)c2F)c(F)c(F)c1S`, the result was inactive.

With `CCOC(=O)C(=CNC(=S)Nc1c(CC)cccc1C(C)(C)C)C(=O)OCC`, the EC50 was greater than 200 µM and the IC50 is greater than 200 µM. As to `CCCCCCCC(=O)c1ccc(O)c(-c2nc3ccc(C(F)(F)F)cc3[nH]2)c1`, the EC50 is greater than 24.5 µM and the IC50 was found to be 2.09 µM. On the same counts, the results for `COC(=O)C1CC23C=CCN4CC(C2C)C2(c5ccccc5NC12)C43` (stereo not drawn) are greater than 200 µM and 112 µM. The corresponding values for `COc1ccc(-c2c(C#N)c(O)n(NS(=O)(=O)c3ccc(C)cc3)c(=O)c2C#N)cc1` are greater than 200 µM and 56.2 µM. On the same counts, the results for `CN1C(=O)[C@H](c2c[nH]c3ccccc23)[C@H](c2c[nH]c3ccccc23)C1=O` are greater than 129 µM and 38 µM. `O=C(c1ccccc1)C(c1ccccc1)C1(O)C(=O)Nc2c(Cl)cc(Cl)cc21` (stereo not drawn): the EC50 was greater than 63.1 µM and the IC50 is greater than 63.1 µM.

(Values after PubChem BioAssay AID179 (DTP/NCI, 2004).)
